Source: patent US20250034135A1, “ANTI-APOPTOTIC PROTEIN BCL-2 INHIBITOR, PHARMACEUTICAL COMPOSITION AND USES THEREOF” (HANGZHOU HEALZEN THERAPEUTICS CO., LTD., priority 2021, published 2025)

Key:
[1] = biological target: BCL-XL (Homo sapiens (Human), UniProt Q07817); test: BCL-XL enzyme molecular level activity test (HTRF, binding to BIM peptide); settings: binding of BCL-XL to BIM peptide, values in nM, read-out: BCL-XL inhibitory activity (IC50)
Experimental: In a white shallow 384-well plate, a total reaction volume was 10 μL. Specifically, it included 2 μL of the compound to be tested (2% DMSO), […] His-tagged recombinant protein, and 4 μL Biotin-tagged BIM protein peptide. After 1 hour of reaction, 5 μL of each Anti-His and streptavidin-tagged XL665 antibody diluents diluted with a detection buffer were added. After incubating at room temperature for 4 hours, the values were read using the Envision multifunctional microplate reader to detect the effect of the compound to be tested on the binding ability of BCL-XL to BIM protein peptides. The Envision parameter settings were exciting light at 320 nm, and emitting light at 615 nm and 665 nm. The binding ability of anti-apoptotic proteins to Bim protein peptides was indirectly reflected by the signal ratio of 665 nm and 615 nm. In the reaction, background wells without BCL2 and active wells for full binding of recombinant proteins without compounds and Bim protein peptides were set up.

[2] = biological target: BCL2 (Homo sapiens (Human), UniProt P10415); test: Molecular level activity test of anti-apoptotic protein BCL2 (HTRF, binding to Bim peptide); settings: HTRF, binding of BCL2 to Bim peptide; read-out: BCL2 nM (inhibitory activity, IC50)
How it was run: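 Competition binding format: recombinant His-BCL2 and a biotin-Bim peptide are incubated with compound for 1 h, followed by 4 h at room temperature with HTRF detection antibodies.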

BCL-XL, sequence (Q07817 whole entry): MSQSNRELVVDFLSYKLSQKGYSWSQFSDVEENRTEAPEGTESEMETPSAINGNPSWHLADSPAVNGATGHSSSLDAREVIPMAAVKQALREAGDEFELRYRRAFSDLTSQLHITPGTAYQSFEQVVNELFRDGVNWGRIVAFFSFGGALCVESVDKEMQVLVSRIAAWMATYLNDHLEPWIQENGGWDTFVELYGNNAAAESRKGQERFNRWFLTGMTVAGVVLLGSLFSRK
BCL2, sequence (P10415 whole entry): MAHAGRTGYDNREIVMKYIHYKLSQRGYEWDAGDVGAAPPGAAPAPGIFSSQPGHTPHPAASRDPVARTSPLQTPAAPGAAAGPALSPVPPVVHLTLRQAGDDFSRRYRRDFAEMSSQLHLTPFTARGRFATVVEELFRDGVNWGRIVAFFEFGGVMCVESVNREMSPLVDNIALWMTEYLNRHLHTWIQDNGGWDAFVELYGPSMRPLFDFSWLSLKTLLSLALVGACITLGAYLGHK

Compound | IC50 [1] [nM] | IC50 [2] [µM]
COc1ccc(CN2CCN(C3CC4(CCN(c5cc(Oc6cnc7[nH]ccc7c6)c(C(=O)NS(=O)(=O)c6ccc(NCC7(F)CCOCC7)c([N+](=O)[O-])c6)cc5F)CC4)C3)C(c3ccccc3C(C)C)C2)cc1 (stereo not drawn) [compound 066, 2-((1H-pyrrolo[2,3-b]pyrid-5-yl)oxy)-5-fluoro-N-((4-(((4-fluorotetrahydro-2H-pyran-4-yl)methyl)amino)-3-nitrophenyl)sulfonyl)-4-(2-(2-(2-isopropylphenyl)-4-(4-methoxybenzyl)piperazin-1-yl)-7-azaspiro[3.5]non-7-yl)benzamide] | > 500 | < 0.01
CC(C)c1ccc(CN2CCN(C3CC4(CCN(c5cc(Oc6cnc7[nH]ccc7c6)c(C(=O)NS(=O)(=O)c6ccc(NCC7(F)CCOCC7)c([N+](=O)[O-])c6)cc5F)CC4)C3)[C@H](c3ccccc3C(C)C)C2)cc1 [compound 193, (R)-2-((1H-pyrrolo[2,3-b]pyrid-5-yl)oxy)-5-fluoro-N-((4-(((4-fluorotetrahydro-2H-pyran-4-yl)methyl)amino)-3-nitrophenyl)sulfonyl)-4-(2-(4-(4-isopropylbenzyl)-2-(2-isopropylphenyl)piperazin-1-yl)-7-azaspiro[3.5]non-7-yl)benzamide] | > 500 | < 0.01
CC(C)c1ccccc1[C@@H]1CN(Cc2cccc3c2OCO3)CCN1C1CC2(CCN(c3cc(Oc4cnc5[nH]ccc5c4)c(C(=O)NS(=O)(=O)c4ccc(NCC5(F)CCOCC5)c([N+](=O)[O-])c4)cc3F)CC2)C1 [compound 204, (R)-2-((1H-pyrrolo[2,3-b]pyrid-5-yl)oxy)-4-(2-(4-(benzo[d][1,3]dioxocyclopent-4-ylmethyl)-2-(2-isopropylphenyl)piperazin-1-yl)-7-azaspiro[3.5]non-7-yl)-5-fluoro-N-((4-(((4-fluorotetrahydro-2H-pyran-4-yl)methyl)amino)-3-nitrophenyl)sulfonyl)benzamide] | > 500 | < 0.01
COc1ccc(CN2CCN(C3CC4(CCN(c5cc(Oc6cnc7[nH]ccc7c6)c(C(=O)NS(=O)(=O)c6ccc(NCC7(F)CCOCC7)c([N+](=O)[O-])c6)cc5F)CC4)C3)[C@H](c3ccccc3C(C)C)C2)c2c1OCO2 [compound 205] | > 500 | < 0.01
COc1cc(CN2CCN(C3CC4(CCN(c5cc(Oc6cnc7[nH]ccc7c6)c(C(=O)NS(=O)(=O)c6ccc(NC[C@H]7CC[C@](C)(O)CC7)c([N+](=O)[O-])c6)cc5F)CC4)C3)[C@H](c3ccccc3C(C)C)C2)cc2cc(C)oc12 [compound 225, 2-((1H-pyrrolo[2,3-b]pyrid-5-yl)oxy)-5-fluoro-N-((4-((((1r, 4r)-4-hydroxy-4-methylcyclohexyl)methyl)amino)-3-nitrophenyl)sulfonyl)-4-(2-((R)-2-(2-isopropylphenyl)-4-((7-methoxy-2-methylbenzofuran-5-yl)methyl)piperazin-1-yl)-7-azaspiro[3.5]non-7-yl)benzamide] |  | < 0.01
COc1ccc(CN2CCN(C3CC4(CCN(c5cc(Oc6cnc7[nH]ccc7c6)c(C(=O)NS(=O)(=O)c6ccc(NC[C@H]7CC[C@](C)(O)CC7)c([N+](=O)[O-])c6)cc5F)CC4)C3)[C@H](c3ccccc3C(C)C)C2)c2c1OCCO2 [compound 228, 2-((1H-pyrrolo[2,3-b]pyrid-5-yl)oxy)-5-fluoro-N-((4-((((1r, 4r)-4-hydroxy-4-methylcyclohexyl)methyl)amino)-3-nitrophenyl)sulfonyl)-4-(2-((R)-2-(2-isopropylphenyl)-4-((8-methoxy-2,3-dihydrobenzo[b][1,4]dioxan-5-yl)methyl)piperazin-1-yl)-7-azaspiro[3.5]non-7-yl)benzamide] |  | < 0.01
CC(C)c1ccccc1[C@@H]1CN(Cc2cnn(C)c2)CCN1C1CC2(CCN(c3cc(Oc4cnc5[nH]ccc5c4)c(C(=O)NS(=O)(=O)c4ccc(NC[C@H]5CC[C@](C)(O)CC5)c([N+](=O)[O-])c4)cc3F)CC2)C1 [compound 229, 2-((1H-pyrrolo[2,3-b]pyrid-5-yl)oxy)-5-fluoro-N-((4-((((1r, 4r)-4-hydroxy-4-methylcyclohexyl)methyl)amino)-3-nitrophenyl)sulfonyl)-4-(2-((R)-2-(2-isopropylphenyl)-4-((1-methyl-1H-pyrazole-4-yl)methyl)piperazin-1-yl)-7-azaspiro[3.5]non-7-yl)benzamide] |  | < 0.01
CC(C)c1ccccc1[C@@H]1CN(Cc2ccncc2)CCN1C1CC2(CCN(c3cc(Oc4cnc5[nH]ccc5c4)c(C(=O)NS(=O)(=O)c4ccc(NC[C@H]5CC[C@](C)(O)CC5)c([N+](=O)[O-])c4)cc3F)CC2)C1 [compound 231, 2-((1H-pyrrolo[2,3-b]pyrid-5-yl)oxy)-5-fluoro-N-((4-((((1r, 4r)-4-hydroxy-4-methylcyclohexyl)methyl)amino)-3-nitrophenyl)sulfonyl)-4-(2-((R)-2-(2-isopropylphenyl)-4-(pyrid-4-ylmethyl)piperazin-1-yl)-7-azaspiro[3.5]non-7-yl)benzamide] |  | < 0.01

More lines, now with the values ahead:

IC50 [1] [nM] | IC50 [2] [µM] | Compound
> 500 | < 0.01 | CC(C)c1ccccc1[C@@H]1CN(Cc2ccc(C(F)(F)F)cc2)CCN1C1CC2(CCN(c3cc(Oc4cnc5[nH]ccc5c4)c(C(=O)NS(=O)(=O)c4ccc(NCC5(F)CCOCC5)c([N+](=O)[O-])c4)cc3F)CC2)C1 [compound 188, (R)-2-((1H-pyrrolo[2,3-b]pyrid-5-yl)oxy)-5-fluoro-N-((4-(((4-fluorotetrahydro-2H-pyran-4-yl)methyl)amino)-3-nitrophenyl)sulfonyl)-4-(2-(2-(2-isopropylphenyl)-4-(4-(trifluoromethyl)benzyl)piperazin-1-yl)-7-azaspiro[3.5]non-7-yl)benzamide]
> 500 | < 0.01 | CC(C)c1ccccc1[C@@H]1CN(Cc2ccc(C3CC3)cc2)CCN1C1CC2(CCN(c3cc(Oc4cnc5[nH]ccc5c4)c(C(=O)NS(=O)(=O)c4ccc(NCC5(F)CCOCC5)c([N+](=O)[O-])c4)cc3F)CC2)C1 [compound 195, (R)-2-((1H-pyrrolo[2,3-b]pyrid-5-yl)oxy)-4-(2-(4-(4-cyclopropylbenzyl)-2-(2-isopropylphenyl)piperazin-1-yl)-7-azaspiro[3.5]non-7-yl)-5-fluoro-N-((4-(((4-fluorotetrahydro-2H-pyran-4-yl)methyl)amino)-3-nitrophenyl)sulfonyl)benzamide]
 | < 0.01 | CC(C)c1ccccc1[C@@H]1CN(Cc2cnn(C(C)C)c2)CCN1C1CC2(CCN(c3cc(Oc4cnc5[nH]ccc5c4)c(C(=O)NS(=O)(=O)c4ccc(NC[C@H]5CC[C@](C)(O)CC5)c([N+](=O)[O-])c4)cc3F)CC2)C1 [compound 230, 2-((1H-pyrrolo[2,3-b]pyrid-5-yl)oxy)-5-fluoro-N-((4-((((1r, 4r)-4-hydroxy-4-methylcyclohexyl)methyl)amino)-3-nitrophenyl)sulfonyl)-4-(2-((R)-4-((1-isopropyl-1H-pyrazole-4-yl)methyl)-2-(2-isopropylphenyl)piperazin-1-yl)-7-azaspiro[3.5]non-7-yl)benzamide]
 | < 0.01 | CC(C)c1ccccc1[C@@H]1CN(Cc2cccnc2)CCN1C1CC2(CCN(c3cc(Oc4cnc5[nH]ccc5c4)c(C(=O)NS(=O)(=O)c4ccc(NC[C@H]5CC[C@](C)(O)CC5)c([N+](=O)[O-])c4)cc3F)CC2)C1 [compound 232, 2-((1H-pyrrolo[2,3-b]pyrid-5-yl)oxy)-5-fluoro-N-((4-((((1r, 4r)-4-hydroxy-4-methylcyclohexyl)methyl)amino)-3-nitrophenyl)sulfonyl)-4-(2-((R)-2-(2-isopropylphenyl)-4-(pyrid-3-ylmethyl)piperazin-1-yl)-7-azaspiro[3.5]non-7-yl)benzamide]
 | < 0.01 | CC(C)c1ccccc1[C@@H]1CN(Cc2ccccn2)CCN1C1CC2(CCN(c3cc(Oc4cnc5[nH]ccc5c4)c(C(=O)NS(=O)(=O)c4ccc(NC[C@H]5CC[C@](C)(O)CC5)c([N+](=O)[O-])c4)cc3F)CC2)C1 [compound 233, 2-((1H-pyrrolo[2,3-b]pyrid-5-yl)oxy)-5-fluoro-N-((4-((((1r, 4r)-4-hydroxy-4-methylcyclohexyl)methyl)amino)-3-nitrophenyl)sulfonyl)-4-(2-((R)-2-(2-isopropylphenyl)-4-(pyrid-2-ylmethyl)piperazin-1-yl)-7-azaspiro[3.5]non-7-yl)benzamide]
 | < 0.01 | (S)-2-((1H-pyrrolo[2,3-b]pyrid-5-yl)oxy)-N-(7-(((4-fluorotetrahydro-2H-pyran-4-yl)methyl)amino)-6-nitro-1H-benzo[d]imidazol-4-yl)sulfonyl)-4-(2-(2-(2-isopropylphenyl)pyrrolidin-1-yl)-7-azaspiro[3.5]non-7-yl)benzamide [compound 005]
 | < 0.01 | (S)-2-((1H-pyrrolo[2,3-b]pyrid-5-yl)oxy)-N-((7-(((4-fluoro-1-(oxocyclobut-3-yl)piperid-4-yl)methyl)amino)-6-nitro-1H-benzo[d]imidazol-4-yl)sulfonyl)-4-(2-(2-(2-isopropylphenyl)pyrrolidin-1-yl)-7-azaspiro[3.5]non-7-yl)benzamide [compound 003]
